Results taken from US10022315B2, “Oral composition for reinforcing skin tolerance following topical administration of a retinoid compound” (NUTRICOS TECHNOLOGIES, priority 2012, dated 2018).

Assays:
Assay type in all cases: in vivo, human
menopausal women [1] = test: Clinical study: evaluation by dermatologists of skin signs associated with the side effects of retinoic acid (score 0-9, on the face); conditions: scale 0-9, face
Method: (§1) The beneficial effect, in terms of reinforcing skin tolerance, of the food supplement of example 1 was assessed in a clinical study carried out according to the protocol which follows:
(§2) The study performed under dermatological control (30 dermatologists) was carried out in menopausal women (n=203), from 50 to 66 years old and showing moderate signs of photo-aging on the face.
(§3) These women were divided up into two treatment groups: • group 1 treated with 0.05% by weight retinoic acid, relative to the total weight of the composition, for 6 months at a rate of one application per day (control group), • group 2 treated with 0.05% by weight retinoic acid, relative to the total weight of the composition, for 6 months at a rate of one application per day, combined with daily intake of the food supplement as described in example 1. 3.1 Evaluation of Symptoms
(§4) The symptoms associated with skin tolerance were evaluated after 60, 120 and 180 days by, on the one hand, dermatologists and, on the other hand, by the subjects themselves.
Dermatologist Scoring Scale

menopausal women [2] = test: Clinical study: evaluation by the patients of skin signs associated with the side effects of retinoic acid (none/mild/moderate/severe, on the face)
Method: as §1, §2, §3, §4
During the last 2 months, have you experienced on the face

menopausal women [3] = test: Clinical study: overall evaluation of skin tolerance to the treatments by the dermatologists (questionnaire)
Method: as §1, §2, §3
(§5) Skin tolerance to the treatments was checked after 60, 120 and 180 days by means of questionnaires given to the dermatologists and the subjects participating in the study.
(§6) Tables 1 (evaluations by the dermatologists) and 2 (self-evaluation by the subjects) summarize the skin tolerance results obtained in groups 1 and 2. The results are expressed as of subjects, in reply to the following question: “do you consider thus far that the tolerance to the treatment is”. The possible replies were excellent, good, average and poor.

menopausal women [4] = test: Clinical study: overall evaluation of skin tolerance to the treatments by the subjects (questionnaire)
Method: as §1, §2, §3, §5, §6

## CC1=C(/C=C/C(C)=C/C=C/C(C)=C/C(=O)O)C(C)(C)CCC1 [GROUP 1, retinoic acid]
Menopausal women [1]; D0
  Pruritus, mean score (dermatologists): 0.6
  Sign of desquamation, mean score (dermatologists): 1.6
  Sign of redness, mean score (dermatologists): 1.2
  Sign of skin dryness, mean score (dermatologists): 3.2
Menopausal women [1]; D60
  Pruritus, mean score (dermatologists): 1.2
  Sign of desquamation, mean score (dermatologists): 1.8
  Sign of redness, mean score (dermatologists): 1.6
  Sign of skin dryness, mean score (dermatologists): 2.7
Menopausal women [1]; D120
  Pruritus, mean score (dermatologists): 0.9
  Sign of desquamation, mean score (dermatologists): 1.5
  Sign of redness, mean score (dermatologists): 1.3
  Sign of skin dryness, mean score (dermatologists): 2.2
Menopausal women [1]; D180
  Pruritus, mean score (dermatologists): 0.6
  Sign of desquamation, mean score (dermatologists): 1.1
  Sign of redness, mean score (dermatologists): 1.0
  Sign of skin dryness, mean score (dermatologists): 1.7
Menopausal women [2]; D60
  Desquamation, patients replying mild (Mi): 41%
  Desquamation, patients replying moderate (Mo): 21%
  Desquamation, patients replying severe (S): 1%
  Redness, patients replying mild (Mi): 46%
  Redness, patients replying moderate (Mo): 13%
  Redness, patients replying severe (S): 0%
  Signs of discomfort, patients replying mild (Mi): 42%
  Signs of discomfort, patients replying moderate (Mo): 15%
  Signs of discomfort, patients replying severe (S): 0%
  Tautness, patients replying mild (Mi): 49%
  Tautness, patients replying moderate (Mo): 10%
  Tautness, patients replying severe (S): 1%
Menopausal women [2]; D120
  Desquamation, patients replying mild (Mi): 42%
  Desquamation, patients replying moderate (Mo): 14%
  Desquamation, patients replying severe (S): 0%
  Itching, patients replying mild (Mi): 42%
  Itching, patients replying moderate (Mo): 7%
  Itching, patients replying severe (S): 0%
  Redness, patients replying mild (Mi): 49%
  Redness, patients replying moderate (Mo): 7%
  Redness, patients replying severe (S): 1%
  Signs of discomfort, patients replying mild (Mi): 35%
  Signs of discomfort, patients replying moderate (Mo): 13%
  Signs of discomfort, patients replying severe (S): 0%
  Tautness, patients replying mild (Mi): 43%
  Tautness, patients replying moderate (Mo): 8%
  Tautness, patients replying severe (S): 0%
Menopausal women [2]; D180
  Desquamation, patients replying mild (Mi): 35%
  Desquamation, patients replying moderate (Mo): 8%
  Desquamation, patients replying severe (S): 0%
  Itching, patients replying mild (Mi): 35%
  Itching, patients replying moderate (Mo): 4%
  Itching, patients replying severe (S): 0%
  Redness, patients replying mild (Mi): 35%
  Redness, patients replying moderate (Mo): 6%
  Redness, patients replying severe (S): 0%
  Signs of discomfort, patients replying mild (Mi): 31%
  Signs of discomfort, patients replying moderate (Mo): 7%
  Signs of discomfort, patients replying severe (S): 0%
  Tautness, patients replying mild (Mi): 35%
  Tautness, patients replying moderate (Mo): 7%
  Tautness, patients replying severe (S): 1%
Menopausal women [2]; J60 (D60)
  Itching, patients replying mild (Mi): 48%
  Itching, patients replying moderate (Mo): 15%
  Itching, patients replying severe (S): 0%
Menopausal women [3]; D60
  Tolerance to the treatment judged Average by the dermatologists, subjects: 24%
  Tolerance to the treatment judged Excellent by the dermatologists, subjects: 15%
  Tolerance to the treatment judged Good by the dermatologists, subjects: 62%
  Tolerance to the treatment judged Poor by the dermatologists, subjects: 0%
Menopausal women [3]; D120
  Tolerance to the treatment judged Average by the dermatologists, subjects: 23%
  Tolerance to the treatment judged Excellent by the dermatologists, subjects: 20%
  Tolerance to the treatment judged Good by the dermatologists, subjects: 58%
  Tolerance to the treatment judged Poor by the dermatologists, subjects: 0%
Menopausal women [3]; D180
  Tolerance to the treatment judged Average by the dermatologists, subjects: 15%
  Tolerance to the treatment judged Excellent by the dermatologists, subjects: 23%
  Tolerance to the treatment judged Good by the dermatologists, subjects: 63%
  Tolerance to the treatment judged Poor by the dermatologists, subjects: 0%
Menopausal women [4]; D60
  Tolerance to the treatment judged Average by the subjects, subjects: 20%
  Tolerance to the treatment judged Excellent by the subjects, subjects: 18%
  Tolerance to the treatment judged Good by the subjects, subjects: 63%
  Tolerance to the treatment judged Poor by the subjects, subjects: 0%
Menopausal women [4]; D120
  Tolerance to the treatment judged Average by the subjects, subjects: 21%
  Tolerance to the treatment judged Excellent by the subjects, subjects: 25%
  Tolerance to the treatment judged Good by the subjects, subjects: 54%
  Tolerance to the treatment judged Poor by the subjects, subjects: 1%
Menopausal women [4]; D180
  Tolerance to the treatment judged Average by the subjects, subjects: 15%
  Tolerance to the treatment judged Excellent by the subjects, subjects: 30%
  Tolerance to the treatment judged Good by the subjects, subjects: 53%
  Tolerance to the treatment judged Poor by the subjects, subjects: 2%
